“And” between values parts separate entries of the source, which are not always exact repeats. Equal values may be shown once.
How the values were obtained:
CYP 2C9 = target: T1, CYP 2C9 (Homo sapiens, UniProt P11712); test: cytochrome P450 inhibition in human liver microsomes; assay type: in vitro ADME
T1 construct: from tissue; host or cells: human liver microsomes
Procedure: (§1) A 10 μl aliquot of this solution was then diluted using 90 μl of 100 mM potassium phosphate buffer (pH 7.4). Probe substrate cocktail solutions for seven major cytochrome P450 isozymes (phenacetin (100 μM for 1A2), bupropion (50 μM for 2B6), diclofenac (20 μM for 2C9), mephenytoin (100 μM for 2C19), dextromethorphan (5 μM for 2D6), chlorzoxazone (50 μM for 2E1), and midazolam (5 μM for 3A4)) were prepared with phosphate buffer. […] Reactions were stopped at 15 min by the addition of 200 μl cold acetonitrile (containing propranolol as internal standard at 20 ng ml^−1) and centrifuged at 17,968×g for 10 min. A 2 μl aliquot of the supernatant was injected into the LC-MS/MS system. The ratio of peak area of test compound /internal standard was used to determine the % metabolic activity of probe substrate according to the concentrations of N-AS added.

CYP 2B6 = target: T2, CYP 2B6 (Homo sapiens, UniProt P20813); test: as above; assay type: in vitro ADME
T2 construct: from tissue; host or cells: human liver microsomes
T2 sequence (P20813 whole entry): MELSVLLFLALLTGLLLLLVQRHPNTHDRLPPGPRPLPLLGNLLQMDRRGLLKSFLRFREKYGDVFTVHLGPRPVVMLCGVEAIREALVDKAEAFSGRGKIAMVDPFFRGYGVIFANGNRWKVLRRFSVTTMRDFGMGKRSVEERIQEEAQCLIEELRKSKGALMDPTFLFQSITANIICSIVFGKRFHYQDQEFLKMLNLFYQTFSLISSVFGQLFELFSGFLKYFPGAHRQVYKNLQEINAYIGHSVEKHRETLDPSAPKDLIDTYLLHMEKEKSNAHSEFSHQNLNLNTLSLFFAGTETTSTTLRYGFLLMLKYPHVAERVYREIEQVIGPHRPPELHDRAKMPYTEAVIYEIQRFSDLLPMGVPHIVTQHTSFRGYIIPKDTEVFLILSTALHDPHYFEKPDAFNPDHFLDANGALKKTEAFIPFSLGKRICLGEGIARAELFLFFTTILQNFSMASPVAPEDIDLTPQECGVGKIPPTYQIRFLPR
Procedure: as §1

CYP 2D6 = target: T3, CYP 2D6 (Homo sapiens, UniProt P10635); test: as above; assay type: in vitro ADME
T3 construct: from tissue; host or cells: human liver microsomes
T3 sequence (P10635 whole entry): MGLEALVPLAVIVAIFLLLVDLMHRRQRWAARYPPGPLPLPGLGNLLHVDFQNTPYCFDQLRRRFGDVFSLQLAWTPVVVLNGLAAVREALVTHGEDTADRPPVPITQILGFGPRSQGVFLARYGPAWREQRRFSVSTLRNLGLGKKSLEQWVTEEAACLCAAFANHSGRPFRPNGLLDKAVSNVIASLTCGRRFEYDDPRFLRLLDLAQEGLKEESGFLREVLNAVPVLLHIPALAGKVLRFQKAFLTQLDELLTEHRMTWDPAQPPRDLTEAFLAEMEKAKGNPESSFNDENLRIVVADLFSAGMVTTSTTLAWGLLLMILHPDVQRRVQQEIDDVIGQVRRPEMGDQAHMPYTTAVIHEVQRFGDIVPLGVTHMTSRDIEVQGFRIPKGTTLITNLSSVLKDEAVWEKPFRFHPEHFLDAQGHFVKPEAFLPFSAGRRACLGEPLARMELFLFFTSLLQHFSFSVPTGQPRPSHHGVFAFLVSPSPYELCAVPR
Procedure: as §1

CYP 3A4 = target: T4, CYP 3A4 (Homo sapiens, UniProt P08684); test: as above; assay type: in vitro ADME
T4 construct: from tissue; host or cells: human liver microsomes
T4 sequence (P08684 whole entry): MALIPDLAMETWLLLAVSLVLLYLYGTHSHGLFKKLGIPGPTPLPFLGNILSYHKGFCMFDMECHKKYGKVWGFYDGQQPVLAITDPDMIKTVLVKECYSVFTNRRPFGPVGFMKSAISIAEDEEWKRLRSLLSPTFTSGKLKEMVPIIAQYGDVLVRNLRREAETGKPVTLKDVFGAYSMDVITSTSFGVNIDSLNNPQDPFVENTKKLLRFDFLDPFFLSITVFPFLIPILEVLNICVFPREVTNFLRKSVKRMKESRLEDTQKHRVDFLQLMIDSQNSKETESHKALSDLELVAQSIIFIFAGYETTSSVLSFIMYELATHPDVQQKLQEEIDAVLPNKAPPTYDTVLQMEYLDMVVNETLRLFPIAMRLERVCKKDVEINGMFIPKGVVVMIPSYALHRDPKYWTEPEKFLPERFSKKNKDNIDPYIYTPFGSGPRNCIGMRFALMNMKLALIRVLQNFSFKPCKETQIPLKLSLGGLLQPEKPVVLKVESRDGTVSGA
Procedure: as §1

CYP 2C19 = target: T5, CYP 2C19 (Homo sapiens, UniProt P33261); test: as above; assay type: in vitro ADME
T5 construct: from tissue; host or cells: human liver microsomes
T5 sequence (P33261 whole entry): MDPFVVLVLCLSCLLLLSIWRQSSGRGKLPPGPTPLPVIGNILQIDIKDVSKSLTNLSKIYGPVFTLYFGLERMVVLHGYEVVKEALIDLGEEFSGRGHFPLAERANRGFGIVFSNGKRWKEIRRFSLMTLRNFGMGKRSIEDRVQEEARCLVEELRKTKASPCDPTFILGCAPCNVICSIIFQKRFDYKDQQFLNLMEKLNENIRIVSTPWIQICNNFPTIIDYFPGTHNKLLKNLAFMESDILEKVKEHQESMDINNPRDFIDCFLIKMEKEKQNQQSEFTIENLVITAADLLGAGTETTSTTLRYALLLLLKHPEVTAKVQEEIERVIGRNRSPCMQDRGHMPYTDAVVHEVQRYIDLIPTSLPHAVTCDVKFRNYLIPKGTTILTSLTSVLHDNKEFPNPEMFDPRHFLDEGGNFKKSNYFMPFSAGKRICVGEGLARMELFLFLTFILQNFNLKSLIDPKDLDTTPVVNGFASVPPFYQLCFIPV
Procedure: as §1

CYP 2E1 = target: T6, CYP 2E1 (Homo sapiens, UniProt P05181); test: as above; assay type: in vitro ADME
T6 construct: from tissue; host or cells: human liver microsomes
T6 sequence (P05181 whole entry): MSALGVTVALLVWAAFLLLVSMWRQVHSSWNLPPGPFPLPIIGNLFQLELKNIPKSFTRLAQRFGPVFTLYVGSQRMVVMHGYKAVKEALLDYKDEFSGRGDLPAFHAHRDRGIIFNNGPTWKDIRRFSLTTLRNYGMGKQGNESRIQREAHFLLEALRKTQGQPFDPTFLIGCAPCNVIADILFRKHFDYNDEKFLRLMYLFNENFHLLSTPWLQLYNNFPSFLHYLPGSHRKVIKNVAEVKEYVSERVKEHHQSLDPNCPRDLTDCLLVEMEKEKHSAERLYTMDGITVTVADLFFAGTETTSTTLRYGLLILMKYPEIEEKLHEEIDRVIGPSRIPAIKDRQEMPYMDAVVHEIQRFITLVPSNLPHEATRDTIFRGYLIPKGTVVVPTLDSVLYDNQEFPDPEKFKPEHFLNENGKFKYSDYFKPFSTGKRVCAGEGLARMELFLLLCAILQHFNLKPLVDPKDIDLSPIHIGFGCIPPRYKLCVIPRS
Procedure: as §1

5×FAD mice = test: ThioS Aβ plaque area and plaque morphometry (Supplementary Fig 8b,c); assay type: in vivo, mouse
Procedure: Thioflavin S (Sigma-Aldrich) staining was carried out according to previously described procedures. We used 6E10 (mouse, 1:100, Signet, SIG39300), anti-20G10 (mouse, 1:1000, provided by D. R. Howlett, GlaxoSmithKline, Harlow, Essex, UK) for Aβ42, anti-G30 (rabbit, 1:1000, provided by D. R. Howlett) for Aβ40, SMA (mouse, 1:400, Sigma-Aldrich, A2547), AT8 (mouse, 1:500, Thermo Fisher Scientific, MN1020), Caspase-3 (mouse, 1:200, Novus Biologicals, NB100-56708), ac-S565 (rabbit, 1:100), COX2 (mouse, 1:250, Thermo Fisher Scientific, 35-8200), Iba1 (rabbit, 1:500, Wako, 019-19941 and goat, Abcam, ab5076), NeuN (mouse, 1:500, Millipore, MAB177), GFAP (rabbit, 1:500, Dako, N1506 and chicken, 1:500, Abcam, ab4674), and Lamp1 (mouse, 1:200, Abcam, ab24170). The sections were analyzed with a laser-scanning confocal microscope (FV3000; Olympus) or with a BX51 microscope (Olympus). MetaMorph software (Molecular Devices) was used to quantification. Three-dimensional reconstruction of microglia was recorded and analyzed using IMARIS software (Bitplane)[11]. For the analysis of age-dependent microglial COX2^+ CX3CR1^+ cells in WT and APP/PS1 mice, COX2 (rabbit, 1:100, Abcam, ab15191) and CX3CR1 (mouse, 1:100, BioLegend, 149008) antibody were used and the images were acquired on Alexa 488 and APC Channel with performed using Operetta CLS and Analysis Software 4.5 (Perkin-Elmer).
Transgenic mouse lines over-expressing the hAPP695swe (APP) and presenilin-1M146V (PS1) mutations were originated from GlaxoSmithKline (Harlow, UK)[32] and maintained as described previously. We purchased 5×FAD mice from Jackson Labs (Stock number. 34840-JAX). Because APP/PS1 and 5xFAD mice show sex differences in disease progression, we used only male mice. To examine possible therapeutic effect of N-AS and aspirin in APP/PS1 mice, the N-AS (30 mg kg^−1, Sigma-Aldrich, 01912) was injected daily s.c. for 8 weeks to 7-months-old APP/PS1 mice until the age of 9 months, and aspirin (2 mg kg^−1, Sigma-Aldrich, A5376)[33] was administrated orally to 7-months-old APP/PS1 mice for 8 weeks. Also, to confirm possible therapeutic efficacy of N-AS in 5×FAD, the N-AS (30 mg kg^−1, Sigma-Aldrich, 01912) was injected daily s.c. for 4 weeks to 3-months-old 5×FAD mice until the age of 4 months. Block randomization method was used to allocate the animals to experimental groups. To eliminate the bias, we were blinded in experimental progress such as data collection and data analysis. Mice were housed at temperature of 22 °C and a 12 h day/12 h night cycle with free access to tap water and food pellets. All protocols were approved by the Kyungpook National University Institutional Animal Care and Use Committee.

T1 sequence (P11712 whole entry): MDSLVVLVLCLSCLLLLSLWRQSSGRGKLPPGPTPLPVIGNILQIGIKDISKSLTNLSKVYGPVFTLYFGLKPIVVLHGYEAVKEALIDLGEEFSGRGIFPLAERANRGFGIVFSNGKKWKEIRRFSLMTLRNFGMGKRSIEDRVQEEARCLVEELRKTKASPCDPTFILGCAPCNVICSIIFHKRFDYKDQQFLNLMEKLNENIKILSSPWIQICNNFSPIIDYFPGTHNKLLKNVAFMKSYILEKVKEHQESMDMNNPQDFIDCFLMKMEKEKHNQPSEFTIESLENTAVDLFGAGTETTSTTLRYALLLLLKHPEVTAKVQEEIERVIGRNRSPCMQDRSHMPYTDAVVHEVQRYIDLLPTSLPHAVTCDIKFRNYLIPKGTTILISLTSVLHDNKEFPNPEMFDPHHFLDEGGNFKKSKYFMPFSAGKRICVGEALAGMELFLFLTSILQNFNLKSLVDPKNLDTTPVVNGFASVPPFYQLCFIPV

Q: With `CCCCCCCCCCCCC/C=C/[C@@H](O)[C@H](CO)NC(C)=O` [N-AS, N-((2S,3R,E)-1,3-Dihydroxyoctadec-4-en-2-yl)acetamide] as the molecule, how does the IC50 (CYP 2C9) read?
A: Its IC50 is over 10 µM.

Q: And the activity at 15 min, 25 µM (CYP 2C9; human, liver microsomes, pH 7.4, probe diclofenac, N-AS 25 µM, read-out: % of control at 25 µM)?
A: The activity at 15 min, 25 µM was 95.5%.

Q: What about the IC50 (CYP 2B6) of the same molecule?
A: The IC50 was over 10 µM.

Q: What about the activity at 15 min, 25 µM (CYP 2B6; human, liver microsomes, pH 7.4, probe bupropion, N-AS 25 µM, read-out: % of control at 25 µM) of the same molecule?
A: The activity at 15 min, 25 µM was 92.7%.

Q: What about the IC50 (CYP 2D6) of the same molecule?
A: Its IC50 is over 10 µM.

Q: What about the activity at 15 min, 25 µM (CYP 2D6; human, liver microsomes, pH 7.4, probe dextromethorphan, N-AS 25 µM, read-out: % of control at 25 µM) of the same molecule?
A: The activity at 15 min, 25 µM was 104%.

Q: And the IC50 (CYP 3A4)?
A: Its IC50 is over 10 µM.

Q: And the activity at 15 min, 25 µM (CYP 3A4; human, liver microsomes, pH 7.4, probe midazolam, N-AS 25 µM, read-out: % of control at 25 µM)?
A: The activity at 15 min, 25 µM was 114%.

Q: And the IC50 (CYP 2C19)?
A: The IC50 was over 10 µM.

Q: What about the activity at 15 min, 25 µM (CYP 2C19; human, liver microsomes, pH 7.4, probe mephenytoin, N-AS 25 µM, read-out: % of control at 25 µM) of the same molecule?
A: Its activity at 15 min, 25 µM is 79.6%.

Q: And the IC50 (CYP 2E1)?
A: The IC50 was over 10 µM.

Q: What about the activity at 15 min, 25 µM (CYP 2E1; human, liver microsomes, pH 7.4, probe chlorzoxazone, N-AS 25 µM, read-out: % of control at 25 µM) of the same molecule?
A: Its activity at 15 min, 25 µM is 84%.

Q: And the “Aβ plaques by size, <25mM” value (5×FAD mice; 5xFAD + N-AS, sFig 8c)?
A: Its value is 92.2364 and 92.245 and 94.982 and 89.4908 and 95.585 and 93.6135.

Q: And the “Aβ plaques by size, >50mM” value (5×FAD mice; 5xFAD + N-AS, sFig 8c)?
A: Its value is 5.395 and 4.6761 and 5.546 and 5.244 and 3.581 and 5.111.

Q: What about the “Aβ plaques by size, 25-50mM” value (5×FAD mice; 5xFAD + N-AS, sFig 8c, in % (unit assumed)) of the same molecule?
A: Its value is 5.341 and 4.808 and 4.956 and 5.7255 and 3.9859 and 4.882.

Q: What about the “Aβ plaque deposit and Aβ plaque phagocytosis” value (5×FAD mice; 5×FAD, N-AS 30 mg kg^-1 daily s.c. 4 weeks) of the same molecule?
A: Its value is “similarly improved AD pathology of 5×FAD mice”.
